Test results reported in patent US20240285598A1 (priority 2021, published 2024).

The molecules below were run on SARS-CoV-2 (assay: Antiviral assay (viral RNA in culture supernatant by RT-qPCR)). Settings: Severe acute respiratory syndrome coronavirus 2, 72 h, read-out: CC50 (Antiviral Data), MOI of 0.05, 72 h, 96-well plate, RT-qPCR of viral RNA.

Structure (SMILES) | CC50 [µM]
CCCN(CCC)[C@@H]1C[C@@H](C(=O)NC(C#N)C[C@@H]2CCNC2=O)N(C(=O)[C@@H](NC(=O)C(F)(F)F)C(C)(C)C)C1 (stereo partly drawn) | > 100
CC(C)(C)OC(=O)N1C[C@H]2[C@@H]([C@H]1C(=O)N[C@H](C#N)C[C@@H]1CCNC1=O)C2(C)C | > 100
CCCN(CCC)[C@@H]1C[C@@H](C(=O)NC(C#N)C[C@@H]2CCNC2=O)N(C(=O)[C@@H](NC(=O)OC(C)(C)C)C(C)(C)C)C1 (stereo partly drawn) | 10.1 to 100
CCCO[C@@H]1C[C@@H](C(=O)NC(C#N)C[C@@H]2CCNC2=O)N(C(=O)[C@@H](NC(=O)NC(C)(C)C)C(C)(C)C)C1 (stereo partly drawn) | > 100
CC(C)(C)NC(=O)N[C@H](C(=O)N1C[C@H]2[C@@H]([C@H]1C(=O)NC(C#N)C[C@@H]1CCNC1=O)C2(C)C)C(C)(C)C (stereo partly drawn) | > 100
CCCN(CCC)[C@@H]1C[C@@H](C(=O)NC(C#N)C[C@@H]2CCNC2=O)N(C(=O)[C@@H](NC(=O)NC(C)(C)C)C(C)(C)C)C1 (stereo partly drawn) | > 100
CC(C)(C)[C@H](NC(=O)C(F)(F)F)C(=O)N1C[C@H](N2CCC(F)(F)CC2)C[C@H]1C(=O)NC(C#N)C[C@@H]1CCNC1=O (stereo partly drawn) | > 100
CCCN(CCC)[C@@H]1C[C@@H](C(=O)NC(C#N)C[C@@H]2CCNC2=O)N(C(=O)[C@@H](NC(=O)OCc2ccccc2)C(C)(C)C)C1 (stereo partly drawn) | 10.1 to 100
CCCN(CCC)[C@@H]1C[C@@H](C(=O)NC(C#N)C[C@@H]2CCNC2=O)N(C(=O)[C@@H](NC(=O)OCc2ccccn2)C(C)(C)C)C1 (stereo partly drawn) | > 100
CCCN(CCC)[C@@H]1C[C@@H](C(=O)NC(C#N)C[C@@H]2CCNC2=O)N(C(=O)[C@@H](NC(=O)OCc2cccnc2)C(C)(C)C)C1 (stereo partly drawn) | > 100
CCCN(CCC)[C@@H]1C[C@@H](C(=O)NC(C#N)C[C@@H]2CCNC2=O)N(C(=O)[C@@H](NC(=O)OCc2ccncc2)C(C)(C)C)C1 (stereo partly drawn) | > 100
CCCN(CCC)[C@@H]1C[C@@H](C(=O)NC(C#N)C[C@@H]2CCNC2=O)N(C(=O)C(C)(C)NC(=O)C(F)(F)F)C1 (stereo partly drawn) | > 100
CCCN(CCC)[C@@H]1C[C@@H](C(=O)NC(C#N)C[C@@H]2CCNC2=O)N(C(=O)C(C)(C)NC(=O)OCc2ccccc2)C1 (stereo partly drawn) | > 100
CC(C)(NC(=O)C(F)(F)F)C(=O)N1C[C@H]2[C@@H]([C@H]1C(=O)N[C@H](C#N)C[C@@H]1CCNC1=O)C2(C)C | > 100
CC(C)(C)[C@H](NC(=O)OCc1ccccc1)C(=O)N1CCC(F)(F)C[C@H]1C(=O)NC(C#N)C[C@@H]1CCNC1=O (stereo partly drawn) | 10.1 to 100
CC(C)(C)[C@H](NC(=O)OCc1ccncc1)C(=O)N1C[C@H]2[C@@H]([C@H]1C(=O)N[C@H](C#N)C[C@@H]1CCNC1=O)C2(C)C | 1 to 10
CC(C)(C)C(NC(=O)OCc1ccncc1)C(=O)N1C[C@H]2[C@@H]([C@H]1C(=O)N[C@H](C#N)C[C@@H]1CCCNC1=O)C2(C)C (stereo partly drawn) | 1 to 10
CCCN(CCC)[C@@H]1C[C@@H](C(=O)NC(C#N)C[C@@H]2CCNC2=O)N(C(=O)[C@@H](NC(=O)C(Cl)(Cl)Cl)C(C)(C)C)C1 (stereo partly drawn) | > 100
CCCO[C@@H]1C[C@@H](C(=O)NC(C#N)C[C@@H]2CCNC2=O)N(C(=O)[C@@H](NC(=O)OC(C)(C)C)C(C)(C)C)C1 (stereo partly drawn) | 10.1 to 100
CCCO[C@@H]1C[C@@H](C(=O)NC(C#N)C[C@@H]2CCNC2=O)N(C(=O)[C@@H](NC(=O)OCc2ccccc2)C(C)(C)C)C1 (stereo partly drawn) | 1 to 10
CC(C)O[C@@H]1C[C@@H](C(=O)NC(C#N)C[C@H]2CCNC2=O)N(C(=O)[C@@H](NC(=O)OCc2ccccn2)C(C)(C)C)C1 (stereo partly drawn) | > 100
CC(C)O[C@@H]1C[C@@H](C(=O)NC(C#N)C[C@H]2CCNC2=O)N(C(=O)[C@@H](NC(=O)OCc2cccnc2)C(C)(C)C)C1 (stereo partly drawn) | > 100

Structure (SMILES) | CC50 [µM]
CC(C)O[C@@H]1C[C@@H](C(=O)NC(C#N)C[C@H]2CCNC2=O)N(C(=O)[C@@H](NC(=O)OC(C)(C)C)C(C)(C)C)C1 (stereo partly drawn) | 10.1 to 100
CC(C)O[C@@H]1C[C@@H](C(=O)NC(C#N)C[C@H]2CCNC2=O)N(C(=O)[C@@H](NC(=O)C(O)c2ccco2)C(C)(C)C)C1 (stereo partly drawn) | > 100
CC(C)O[C@@H]1C[C@@H](C(=O)NC(C#N)C[C@H]2CCNC2=O)N(C(=O)[C@@H](NC(=O)OCc2ccncc2)C(C)(C)C)C1 (stereo partly drawn) | > 100
CC(C)O[C@@H]1C[C@@H](C(=O)NC(C#N)C[C@H]2CCNC2=O)N(C(=O)[C@@H](NC(=O)C(F)(F)F)C(C)(C)C)C1 (stereo partly drawn) | 10.1 to 100
CCCN(CCC)[C@@H]1C[C@@H](C(=O)N[C@H](C#N)Cc2cc(C)n[nH]2)N(C(=O)C(NC(=O)C(F)(F)F)C(C)(C)C)C1 (stereo partly drawn) | > 100
Cc1cc(C[C@@H](C#N)NC(=O)[C@@H]2[C@@H]3[C@H](CN2C(=O)[C@H](NC(=O)C(F)(F)F)C(C)(C)C)C3(C)C)[nH]n1 | 10.1 to 100
CCCN(CCC)[C@@H]1C[C@@H](C(=O)NC(C#N)Cc2cc(OS(=O)(=O)c3ccc(C)cc3)n(S(=O)(=O)c3ccc(C)cc3)n2)N(C(=O)[C@@H](NC(=O)C(F)(F)F)C(C)(C)C)C1 (stereo partly drawn) | > 100
Cc1cc(C[C@@H](C#N)NC(=O)[C@@H]2[C@@H]3[C@H](CN2C(=O)[C@H](NC(=O)C2C4CO[C@@H]5OC[C@@H]2C5C4)C(C)(C)C)C3(C)C)[nH]n1 (stereo partly drawn) | > 100
CC(C)Cc1cc(C[C@@H](C#N)NC(=O)[C@@H]2[C@@H]3[C@H](CN2C(=O)[C@H](NC(=O)C(F)(F)F)C(C)(C)C)C3(C)C)[nH]n1 | > 100
CC(C)(C)[C@@H](NC(=O)C(F)(F)F)C(=O)N1C[C@H]2[C@@H]([C@H]1C(=O)N[C@H](C#N)Cc1cc(CO)n[nH]1)C2(C)C | > 100
CCCN(CCC)[C@@H]1C[C@@H](C(=O)NC(C#N)Cc2cn[nH]c2O)N(C(=O)[C@@H](NC(=O)C(F)(F)F)C(C)(C)C)C1 (stereo partly drawn) | > 100
CC(C)(C)[C@H](NC(=O)C(F)(F)F)C(=O)N1C[C@H]2[C@@H]([C@H]1C(=O)NC(C#N)Cc1cn[nH]c1O)C2(C)C (stereo partly drawn) | > 100
CC(C)(C)C(=O)N[C@H](C(=O)N1C[C@H]2[C@@H]([C@H]1C(=O)N[C@H](C#N)C[C@@H]1CCNC1=O)C2(C)C)C(C)(C)C | 1 to 10
CC(C)(C)[C@H](NC(=O)C(Cl)(Cl)Cl)C(=O)N1C[C@H]2[C@@H]([C@H]1C(=O)N[C@H](C#N)C[C@@H]1CCNC1=O)C2(C)C | > 100
CC(C)(C)[C@H](NC(=O)C(F)(F)F)C(=O)N1Cc2ccccc2CC1C(=O)N[C@@H](C#N)C[C@@H]1CCNC1=O (stereo partly drawn) | > 100
CC(C)(C)[C@H](NC(=O)C(Cl)(Cl)Cl)C(=O)N1C[C@H]2[C@@H]([C@H]1C(=O)N[C@H](C#N)C[C@@H]1CCCNC1=O)C2(C)C | > 100
CC(C)(C)[C@H](NC(=O)C(F)(F)F)C(=O)N1CCN(Cc2ccccc2)CC1C(=O)N[C@@H](C#N)C[C@@H]1CCNC1=O (stereo partly drawn) | > 100
CC(C)(C)OC(=O)N[C@H](C(=O)N1CCN(C(=O)OC(C)(C)C)CC1C(=O)N[C@@H](C#N)C[C@@H]1CCNC1=O)C(C)(C)C (stereo partly drawn) | > 100
CC(C)(C)OC(=O)N[C@H](C(=O)N1CCN(C(=O)OC(C)(C)C)C[C@H]1C(=O)NC(C#N)CC1CCNC1=O)C(C)(C)C (stereo partly drawn) | > 100
CC(C)(C)OC(=O)N[C@H](C(=O)N1Cc2ccccc2C[C@H]1C(=O)NC(C#N)CC1CCNC1=O)C(C)(C)C (stereo partly drawn) | > 100
CC(C)(C)[C@H](NC(=O)c1ccccc1)C(=O)N1C[C@H]2[C@@H]([C@H]1C(=O)N[C@H](C#N)C[C@@H]1CCNC1=O)C2(C)C [drawing 68] | 10.1 to 100

Same assay, conditions: read-out: CC50 (Antiviral Data); MOI of 0.05, 72 h, 96-well plate, RT-qPCR of viral RNA

Structure (SMILES) | CC50 [µM]
CC(C)(C)[C@H](NC(=O)C(F)(F)F)C(=O)N1C[C@H]2[C@@H]([C@H]1C(=O)N[C@H](C#N)C[C@@H]1CCNC1=O)C2(C)C [drawing 61] | 10.1 to 100
CC(C)(C)[C@H](NC(=O)C(F)(F)F)C(=O)N1C[C@H]2[C@@H]([C@H]1C(=O)N[C@H](C#N)C[C@@H]1CCCNC1=O)C2(C)C [drawing 62] | 10.1 to 100
CC(C)(C)[C@H](NC(=O)C(F)(F)F)C(=O)N1C[C@H]2[C@@H]([C@H]1C(=O)N[C@H](C#N)C[C@@H]1CCNC1=O)C2(C)C [drawing 94] | > 100
CC(C)(C)[C@H](NC(=O)C(F)(F)F)C(=O)N1C[C@H]2[C@@H]([C@H]1C(=O)N[C@H](C#N)C[C@@H]1CCCNC1=O)C2(C)C [drawing 95] | 1 to 10
CC(C)(C)[C@H](NC(=O)c1ccccc1)C(=O)N1C[C@H]2[C@@H]([C@H]1C(=O)N[C@H](C#N)C[C@@H]1CCNC1=O)C2(C)C [drawing 101] | 10.1 to 100
